Laboratory results taken from publication PMC9684079, “Pharmacological targeting of glutamatergic neurons within the brainstem for weight reduction” (Nature Metabolism, 2022).

Key:
Assay in all cases: biochemical
Design in all cases: Cerep/Eurofins selectivity panel, receptors, channels and transporters, per cent inhibition at 10 uM
Details in all cases: read-out: % Inhibition
Dopamine D4.2 = biological target: T1, Dopamine D4.2 (Homo sapiens, UniProt P21917)
T1 construct: gene DRD4; D4.2

[1] = biological target: T2, Transporter, Dopamine (DAT) (Homo sapiens, UniProt Q01959)
T2 construct: gene SLC6A3
T2 sequence (Q01959 whole entry): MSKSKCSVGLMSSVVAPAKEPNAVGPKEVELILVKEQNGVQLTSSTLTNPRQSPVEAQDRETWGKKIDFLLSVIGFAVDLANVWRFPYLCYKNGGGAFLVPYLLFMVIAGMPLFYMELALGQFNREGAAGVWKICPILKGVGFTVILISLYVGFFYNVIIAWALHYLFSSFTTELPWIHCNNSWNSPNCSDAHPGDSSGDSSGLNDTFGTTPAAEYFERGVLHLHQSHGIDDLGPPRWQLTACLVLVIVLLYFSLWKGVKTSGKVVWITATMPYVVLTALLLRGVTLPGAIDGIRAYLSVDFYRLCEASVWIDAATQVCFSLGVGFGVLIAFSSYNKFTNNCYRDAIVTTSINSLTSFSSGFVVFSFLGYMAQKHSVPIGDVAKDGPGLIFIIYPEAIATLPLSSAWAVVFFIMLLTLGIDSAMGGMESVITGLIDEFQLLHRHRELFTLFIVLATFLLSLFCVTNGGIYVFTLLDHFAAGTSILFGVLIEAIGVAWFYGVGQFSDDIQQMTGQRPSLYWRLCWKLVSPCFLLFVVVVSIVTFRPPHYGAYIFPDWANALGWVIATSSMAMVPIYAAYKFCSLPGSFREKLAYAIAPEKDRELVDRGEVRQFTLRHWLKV

Adrenergic β2 = biological target: T3, Adrenergic β2 (Homo sapiens, UniProt P07550)
T3 construct: gene ADRB2

Estrogen Erα = biological target: T4, Estrogen Erα (Homo sapiens, UniProt P03372)
T4 construct: gene ESR1
T4 sequence (P03372 whole entry): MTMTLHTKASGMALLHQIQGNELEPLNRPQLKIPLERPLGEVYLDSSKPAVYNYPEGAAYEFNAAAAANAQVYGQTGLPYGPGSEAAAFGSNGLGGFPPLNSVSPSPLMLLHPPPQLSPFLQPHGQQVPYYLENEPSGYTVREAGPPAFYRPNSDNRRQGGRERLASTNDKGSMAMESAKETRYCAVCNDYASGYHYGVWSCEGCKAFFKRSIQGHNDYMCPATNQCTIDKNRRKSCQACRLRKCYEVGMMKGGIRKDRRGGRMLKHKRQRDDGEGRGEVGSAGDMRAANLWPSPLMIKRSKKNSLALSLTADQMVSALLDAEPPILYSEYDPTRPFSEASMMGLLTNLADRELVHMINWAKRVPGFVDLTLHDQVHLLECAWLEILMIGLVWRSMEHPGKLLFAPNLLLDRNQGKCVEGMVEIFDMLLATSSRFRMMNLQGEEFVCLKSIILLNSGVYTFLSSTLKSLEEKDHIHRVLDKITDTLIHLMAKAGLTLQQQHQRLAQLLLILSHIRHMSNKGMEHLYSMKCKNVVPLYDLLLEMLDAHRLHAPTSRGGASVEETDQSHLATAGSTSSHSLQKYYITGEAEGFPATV

Muscarinic M3 = biological target: T5, Muscarinic M3 (Homo sapiens, UniProt P20309)
T5 construct: gene CHRM3
T5 sequence (P20309 whole entry): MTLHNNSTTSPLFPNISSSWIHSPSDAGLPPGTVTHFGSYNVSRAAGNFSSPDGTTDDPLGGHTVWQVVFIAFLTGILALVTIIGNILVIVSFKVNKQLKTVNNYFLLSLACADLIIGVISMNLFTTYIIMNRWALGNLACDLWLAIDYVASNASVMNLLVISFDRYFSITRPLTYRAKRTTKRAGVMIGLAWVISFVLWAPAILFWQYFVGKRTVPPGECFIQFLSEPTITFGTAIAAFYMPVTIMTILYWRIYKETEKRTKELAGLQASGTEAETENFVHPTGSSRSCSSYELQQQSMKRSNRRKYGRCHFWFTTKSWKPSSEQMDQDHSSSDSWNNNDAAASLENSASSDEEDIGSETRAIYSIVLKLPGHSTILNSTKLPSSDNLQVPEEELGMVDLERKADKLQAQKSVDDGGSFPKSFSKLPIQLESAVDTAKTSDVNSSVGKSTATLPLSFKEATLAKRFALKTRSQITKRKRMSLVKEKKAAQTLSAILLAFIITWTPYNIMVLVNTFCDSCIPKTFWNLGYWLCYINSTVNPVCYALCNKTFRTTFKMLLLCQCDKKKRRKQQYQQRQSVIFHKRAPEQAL

Dopamine D1 = biological target: T6, Dopamine D1 (Homo sapiens, UniProt P21728)
T6 construct: gene DRD1

Cholecystokinin CCK2 = biological target: T7, Cholecystokinin CCK2 (Homo sapiens, UniProt P32239)
T7 construct: gene CCKBR
T7 sequence (P32239 whole entry): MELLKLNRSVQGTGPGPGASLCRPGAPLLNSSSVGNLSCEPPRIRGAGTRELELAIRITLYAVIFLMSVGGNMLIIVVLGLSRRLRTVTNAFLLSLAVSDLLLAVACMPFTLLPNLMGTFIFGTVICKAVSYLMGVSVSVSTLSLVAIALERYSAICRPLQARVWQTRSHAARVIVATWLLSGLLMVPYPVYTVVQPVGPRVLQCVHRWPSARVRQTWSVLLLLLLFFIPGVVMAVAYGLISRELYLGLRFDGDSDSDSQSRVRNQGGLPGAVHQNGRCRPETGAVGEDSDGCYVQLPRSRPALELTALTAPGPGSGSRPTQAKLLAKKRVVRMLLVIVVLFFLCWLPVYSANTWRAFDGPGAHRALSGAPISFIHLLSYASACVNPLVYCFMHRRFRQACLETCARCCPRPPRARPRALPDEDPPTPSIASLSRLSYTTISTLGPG

Histamine H1 = biological target: T8, Histamine H1 (Homo sapiens, UniProt P35367)
T8 construct: gene HRH1

Opiate κ(OP2, KOP) = biological target: T9, Opiate κ(OP2, KOP) (Homo sapiens, UniProt P41145)
T9 construct: gene OPRK1

Histamine H2 = biological target: T10, Histamine H2 (Homo sapiens, UniProt P25021)
T10 construct: gene HRH2

Vasopressin V1b = biological target: T11, Vasopressin V1b (Homo sapiens, UniProt P47901)
T11 construct: gene AVPR1B

[2] = biological target: T12, Transporter, Norepinephrine (NET) (Homo sapiens, UniProt P23975)
T12 construct: gene SLC6A2

Progesterone PR-B = biological target: T13, Progesterone PR-B (Homo sapiens, UniProt P06401)
T13 construct: gene PGR; PR-B isoform

Adrenergic β3 = biological target: T14, Adrenergic β3 (Homo sapiens, UniProt P13945)
T14 construct: gene ADRB3
T14 sequence (P13945 whole entry): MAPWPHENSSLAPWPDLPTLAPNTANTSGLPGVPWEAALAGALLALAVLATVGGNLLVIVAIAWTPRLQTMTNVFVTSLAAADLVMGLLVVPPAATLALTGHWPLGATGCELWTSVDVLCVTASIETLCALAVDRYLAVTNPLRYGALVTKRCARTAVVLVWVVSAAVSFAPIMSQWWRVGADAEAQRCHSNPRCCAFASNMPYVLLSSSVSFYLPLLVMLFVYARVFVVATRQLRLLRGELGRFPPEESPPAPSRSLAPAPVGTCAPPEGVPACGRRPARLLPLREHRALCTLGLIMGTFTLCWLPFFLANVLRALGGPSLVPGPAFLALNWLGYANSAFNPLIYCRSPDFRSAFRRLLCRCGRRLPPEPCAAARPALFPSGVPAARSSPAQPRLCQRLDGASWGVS

Adenosine A2A = biological target: T15, Adenosine A2A (Homo sapiens, UniProt P29274)
T15 construct: gene ADORA2A
T15 sequence (P29274 whole entry): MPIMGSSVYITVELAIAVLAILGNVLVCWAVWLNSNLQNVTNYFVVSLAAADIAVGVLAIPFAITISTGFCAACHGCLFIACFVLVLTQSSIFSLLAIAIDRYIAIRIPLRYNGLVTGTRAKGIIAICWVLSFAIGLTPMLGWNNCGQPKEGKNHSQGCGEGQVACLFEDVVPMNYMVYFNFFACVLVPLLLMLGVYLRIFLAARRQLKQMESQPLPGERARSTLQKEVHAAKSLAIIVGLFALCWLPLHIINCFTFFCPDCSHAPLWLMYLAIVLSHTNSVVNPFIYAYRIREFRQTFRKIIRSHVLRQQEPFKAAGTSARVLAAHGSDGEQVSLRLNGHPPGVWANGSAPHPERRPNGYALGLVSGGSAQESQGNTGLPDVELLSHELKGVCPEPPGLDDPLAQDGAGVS

Opiate μ(OP3, MOP) = biological target: T16, Opiate μ(OP3, MOP) (Homo sapiens, UniProt P35372)
T16 construct: gene OPRM1

Adenosine A3 = biological target: T17, Adenosine A3 (Homo sapiens, UniProt P0DMS8)
T17 construct: gene ADORA3
T17 sequence (P0DMS8 whole entry): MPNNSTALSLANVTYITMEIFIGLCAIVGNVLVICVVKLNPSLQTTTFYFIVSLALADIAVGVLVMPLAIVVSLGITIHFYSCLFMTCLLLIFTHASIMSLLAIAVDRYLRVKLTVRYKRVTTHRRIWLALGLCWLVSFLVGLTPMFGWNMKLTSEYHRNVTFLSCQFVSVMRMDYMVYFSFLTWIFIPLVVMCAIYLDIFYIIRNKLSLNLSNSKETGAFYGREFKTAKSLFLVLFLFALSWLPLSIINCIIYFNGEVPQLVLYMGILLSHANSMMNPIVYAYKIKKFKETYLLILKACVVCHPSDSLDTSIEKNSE

Angiotensin AT2 = biological target: T18, Angiotensin AT2 (Homo sapiens, UniProt P50052)
T18 construct: gene AGTR2
T18 sequence (P50052 whole entry): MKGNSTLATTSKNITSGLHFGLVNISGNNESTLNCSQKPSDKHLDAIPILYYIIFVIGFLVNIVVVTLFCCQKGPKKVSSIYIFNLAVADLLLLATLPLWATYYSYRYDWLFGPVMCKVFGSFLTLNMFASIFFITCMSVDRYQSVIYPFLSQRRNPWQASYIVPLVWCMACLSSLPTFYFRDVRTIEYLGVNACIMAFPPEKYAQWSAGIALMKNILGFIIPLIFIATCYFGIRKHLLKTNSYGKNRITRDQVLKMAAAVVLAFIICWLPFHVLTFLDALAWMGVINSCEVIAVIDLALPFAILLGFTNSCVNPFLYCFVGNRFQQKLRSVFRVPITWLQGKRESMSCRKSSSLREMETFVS

AdenosineA2B = biological target: T19, AdenosineA2B (Homo sapiens, UniProt P29275)
T19 construct: gene ADORA2B
T19 sequence (P29275 whole entry): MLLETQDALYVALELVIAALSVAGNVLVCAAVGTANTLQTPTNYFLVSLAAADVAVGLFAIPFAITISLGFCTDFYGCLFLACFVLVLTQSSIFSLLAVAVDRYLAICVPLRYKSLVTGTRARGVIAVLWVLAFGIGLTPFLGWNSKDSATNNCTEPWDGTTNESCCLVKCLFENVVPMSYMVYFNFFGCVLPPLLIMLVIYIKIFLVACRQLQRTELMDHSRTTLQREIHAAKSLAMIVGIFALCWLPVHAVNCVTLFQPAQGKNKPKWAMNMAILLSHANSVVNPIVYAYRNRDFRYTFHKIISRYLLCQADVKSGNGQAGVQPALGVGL

Dopamine D2L = biological target: T20, Dopamine D2L (Homo sapiens, UniProt P14416)
T20 construct: gene DRD2; long isoform D2L

Vasopressin V1a = biological target: T21, Vasopressin V1a (Homo sapiens, UniProt P37288)
T21 construct: gene AVPR1A
T21 sequence (P37288 whole entry): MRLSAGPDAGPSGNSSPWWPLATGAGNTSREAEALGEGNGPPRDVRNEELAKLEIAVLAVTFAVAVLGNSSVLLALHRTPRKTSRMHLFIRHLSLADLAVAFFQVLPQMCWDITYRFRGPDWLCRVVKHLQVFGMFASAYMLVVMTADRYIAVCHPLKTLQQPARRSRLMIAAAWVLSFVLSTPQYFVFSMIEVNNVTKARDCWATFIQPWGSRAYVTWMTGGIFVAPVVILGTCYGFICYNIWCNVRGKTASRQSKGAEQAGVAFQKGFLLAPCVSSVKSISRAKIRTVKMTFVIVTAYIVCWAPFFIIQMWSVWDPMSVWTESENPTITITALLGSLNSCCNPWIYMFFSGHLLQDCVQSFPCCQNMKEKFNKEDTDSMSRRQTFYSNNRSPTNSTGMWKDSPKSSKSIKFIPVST

[3] = biological target: T22, Transporter, Serotonin (SERT) (Homo sapiens, UniProt P31645)
T22 construct: gene SLC6A4

Histamine H3 = biological target: T23, Histamine H3 (Homo sapiens, UniProt Q9Y5N1)
T23 construct: gene HRH3
T23 sequence (Q9Y5N1 whole entry): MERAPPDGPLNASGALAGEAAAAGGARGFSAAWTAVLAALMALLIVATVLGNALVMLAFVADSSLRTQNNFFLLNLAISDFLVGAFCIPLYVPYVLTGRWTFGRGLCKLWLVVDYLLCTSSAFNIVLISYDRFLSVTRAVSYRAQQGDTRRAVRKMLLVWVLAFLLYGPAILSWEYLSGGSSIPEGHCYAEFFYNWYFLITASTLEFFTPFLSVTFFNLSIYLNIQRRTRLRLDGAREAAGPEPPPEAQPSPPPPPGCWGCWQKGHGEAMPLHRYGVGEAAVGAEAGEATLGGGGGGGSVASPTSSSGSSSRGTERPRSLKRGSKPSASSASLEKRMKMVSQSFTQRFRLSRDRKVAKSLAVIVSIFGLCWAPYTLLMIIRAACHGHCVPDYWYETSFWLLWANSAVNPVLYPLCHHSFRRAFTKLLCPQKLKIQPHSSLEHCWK

Opiate δ1 (OP1, DOP) = biological target: T24, Opiate δ1 (OP1, DOP) (Homo sapiens, UniProt P41143)
T24 construct: gene OPRD1

Structure (SMILES): C[C@]1(Nc2cnc(C(F)(F)F)cn2)CCC[C@@H]1NC(=O)c1ncccc1-n1nccn1 [CVN45502]
- inhibition at 10 µM (Dopamine D4.2): -9%
- inhibition at 10 µM [1]: 4%
- inhibition at 10 µM (Adrenergic β2): 0%
- inhibition at 10 µM (Estrogen Erα): 2%
- inhibition at 10 µM (Muscarinic M3): -1%
- inhibition at 10 µM (Dopamine D1): 2%
- inhibition at 10 µM (Cholecystokinin CCK2): 5%
- inhibition at 10 µM (Histamine H1): 2%
- inhibition at 10 µM (Opiate κ(OP2, KOP)): 3%
- inhibition at 10 µM (Histamine H2): -14%
- inhibition at 10 µM (Vasopressin V1b): -8%
- inhibition at 10 µM [2]: -6%
- inhibition at 10 µM (Progesterone PR-B): 21%
- inhibition at 10 µM (Adrenergic β3): 0%
- inhibition at 10 µM (Adenosine A2A): 2%
- inhibition at 10 µM (Opiate μ(OP3, MOP)): -3%
- inhibition at 10 µM (Adenosine A3): -2%
- inhibition at 10 µM (Angiotensin AT2): 5%
- inhibition at 10 µM (AdenosineA2B): -7%
- inhibition at 10 µM (Dopamine D2L): 7%
- inhibition at 10 µM (Vasopressin V1a): -14%
- inhibition at 10 µM [3]: 7%
- inhibition at 10 µM (Histamine H3): -4%
- inhibition at 10 µM (Opiate δ1 (OP1, DOP)): -4%
